From publication PMC7784773 (Protein Science : A Publication of the Protein Society, 2020)
Several values for one entry are separate records, joined by “and”; a condition that tells them apart may be missing. Equal entries are not always repeated.

Key:
[1] = target: T1, R67 dihydrofolate reductase (R67 DHFR; 4F, 5F, 6F and 7F R67 DHFR) (Escherichia coli, UniProt P00383); assay: […] NMR titration, peak intensity, […] fit; assay type: binding; conditions: Kd (μM) ^a / NADP^+
T1 sequence (P00383 1-78): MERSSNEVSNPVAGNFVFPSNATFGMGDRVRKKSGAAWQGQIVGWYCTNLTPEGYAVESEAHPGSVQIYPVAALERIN

[2] = target: T1, R67 dihydrofolate reductase (R67 DHFR; 4F, 5F, 6F and 7F R67 DHFR); assay: […] NMR titration, chemical shift, […] fit; assay type: binding

## NC(=O)c1ccc[n+]([C@@H]2O[C@H](COP(=O)(O)OP(=O)(O)OC[C@H]3O[C@@H](n4cnc5c(N)ncnc54)[C@H](OP(=O)(O)O)[C@@H]3O)[C@@H](O)[C@H]2O)c1 [NADP^+]
[1]
  Kd: 360 µM and 320 µM and 380 µM
[2]
  Kd: 220 ± 20 µM
